Literature values in patent publication EP0112266B1, “Substituted tropyl and pseudotropyl benzoates and their use in migraine treatment” (MERRELL DOW FRANCE ET CIE, priority 1982, dated 1984).

Legend:
5-HT M-receptor = target: T1, 5-HT M-receptor (Oryctolagus cuniculus, UniProt G1TUQ4); settings: potency as 5-HT M-receptor antagonist; literature values (Fozard et al, Eur. J. Pharmacol. 1978/1979)
T1 sequence (G1TUQ4 24-513): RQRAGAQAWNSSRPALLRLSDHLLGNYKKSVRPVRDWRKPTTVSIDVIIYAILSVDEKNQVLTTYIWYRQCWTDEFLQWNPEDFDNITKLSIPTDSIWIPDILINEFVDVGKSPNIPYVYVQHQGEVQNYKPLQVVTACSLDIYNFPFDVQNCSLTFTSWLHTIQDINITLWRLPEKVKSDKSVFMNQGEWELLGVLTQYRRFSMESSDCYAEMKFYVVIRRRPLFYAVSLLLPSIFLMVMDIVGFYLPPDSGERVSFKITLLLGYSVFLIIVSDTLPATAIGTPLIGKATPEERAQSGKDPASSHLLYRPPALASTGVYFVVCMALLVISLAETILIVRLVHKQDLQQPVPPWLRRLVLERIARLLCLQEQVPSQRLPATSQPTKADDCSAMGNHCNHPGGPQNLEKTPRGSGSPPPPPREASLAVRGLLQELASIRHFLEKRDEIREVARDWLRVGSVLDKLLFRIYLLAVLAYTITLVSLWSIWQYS

[1] = slow intravenous injection, 10 mg
[2] = tested on: isolated guinea pig ileum; settings: stated in Schultz et al, 1972

For `CN1[C@@H]2CC[C@H]1C[C@@H](OC(=O)c1ccccc1)C2` [benzoyl tropine], which pA2 (5-HT M-receptor) is on record?
Its pA2 is 7.2.

Which “relief of acute migraine attack” value [1] does the source give for `CCN(CC)CCNC(=O)c1cc(Cl)c(N)cc1OC` [metoclopramide] here?
Its value is “immediate relief”.

Which spasmolytic- inducing activity [2] does the source give for `CN1[C@@H]2CC[C@H]1C[C@@H](OC(=O)c1ccccc1Cl)C2` [tropyl 2-chlorobenzoate] here?
Its spasmolytic- inducing activity is “spasmolytic- inducing activity”.
